What all share (format): in vivo
The subject of one assay is Amaranthus retroflexus. The assay is described as follows: Post-emergence herbicidal activity against AMARE. The settings on record: dosage 320 g/ha, rated visually after about 3 weeks; for pest or weed control at 320 g/ha: Amaranthus retroflexus, 504 h. As to the method:
(§1) [table] Seeds of monocotyledonous and dicotyledonous weeds and crop plants are placed in sandy loam in plastic or wood-fiber pots, covered with soil and cultivated in a greenhouse under controlled growth conditions. 2 to 3 weeks after sowing, the test plants are treated at the one-leaf stage. The compounds of the invention, formulated in the form of wettable powders (WP) or as emulsion concentrates (EC), are then sprayed onto the green parts of the plants as aqueous suspension or emulsion with addition of 0.5% additive at a water application rate of 600 l/ha (converted). After the test plants had been kept in the greenhouse under optimum growth conditions for about 3 weeks, the activity of the preparations is rated visually in comparison to untreated controls. For example, 100% activity=the plants have died, 0% activity=like control plants.

Assay [1] has as its system Avena fatua. The assay is described as follows: Post-emergence herbicidal activity against AVEFA. To be noted: dosage 320 g/ha, rated visually after about 3 weeks; for pest or weed control at 320 g/ha: Avena fatua, 504 h. As to the method: as §1
The subject of assay [2] is Stellaria media. The assay is described as follows: Post-emergence herbicidal activity against STEME. The settings on record: dosage 320 g/ha, rated visually after about 3 weeks; for pest or weed control at 320 g/ha: Stellaria media, 504 h. As to the method:
as §1

Assay [3] relates to Stellaria media. The assay can be described thus: Pre-emergence herbicidal activity against STEME. The settings on record: dosage 80 g/ha, scored visually after about 3 weeks vs untreated controls. An excerpt:
(§2) 1. Pre-emergence herbicidal action against harmful plants and crop plant compatibility Seeds of monocotyledonous and dicotyledonous weed plants and crop plants are placed in plastic or wood fiber pots and covered with soil. The compounds of the invention, formulated in the form of wettable powders (WP) or as emulsion concentrates (EC), are then applied onto the surface of the covering soil as aqueous suspension or emulsion with addition of 0.5% additive at a water application rate of 600 l/ha (converted). After the treatment, the pots are placed in a greenhouse and kept under good growth conditions for the trial plants. After about 3 weeks, the effect of the preparations is scored visually in comparison with untreated controls as percentages. For example, 100% activity=the plants have died, 0% activity=like control plants. [table]

The test system of the next assay is Echinochloa crus-galli. The assay is described as follows: Post-emergence herbicidal activity against ECHCG. The settings on record: dosage 320 g/ha, rated visually after about 3 weeks; for pest or weed control at 320 g/ha: Echinochloa crus-galli, 504 h. The method, then: as §1
The test system of assay [4] is Alopecurus myosuroides. The assay can be described thus: Post-emergence herbicidal activity against ALOMY. The settings on record: dosage 320 g/ha, rated visually after about 3 weeks; for pest or weed control at 320 g/ha: Alopecurus myosuroides, 504 h. As to the method: as §1
Assay [5] relates to Polygonum convolvulus. The assay is described as follows: Post-emergence herbicidal activity against POLCO. The settings on record: dosage 320 g/ha, rated visually after about 3 weeks; for pest or weed control at 320 g/ha: Fallopia convolvulus, 504 h. The method, then: as §1
The test system of assay [6] is Polygonum convolvulus. The assay can be described thus: Pre-emergence herbicidal activity against POLCO. To be noted: Fallopia convolvulus, 504 h, dosage 80 g/ha, scored visually after about 3 weeks vs untreated controls.
From the text: as §2

The test system of assay [7] is Veronica persica. The assay is described as follows: Post-emergence herbicidal activity against VERPE. To be noted: dosage 320 g/ha, rated visually after about 3 weeks; for pest or weed control at 320 g/ha: Veronica persica, 504 h. The method, then: as §1
The test system of a further assay is Viola tricolor. The assay can be described thus: Post-emergence herbicidal activity against VIOTR. The settings on record: dosage 320 g/ha, rated visually after about 3 weeks; for pest or weed control at 320 g/ha: Viola tricolor, 504 h. As to the method:
as §1

In a further assay the test system is Setaria viridis. The assay is described as follows: Post-emergence herbicidal activity against SETVI. The settings on record: dosage 320 g/ha, rated visually after about 3 weeks; for pest or weed control at 320 g/ha: Setaria viridis, 504 h. The method, then:
as §1

For a further assay, the system named is Pharbitis purpurea. The assay is described as follows: Post-emergence herbicidal activity against PHBPU. To be noted: dosage 320 g/ha, rated visually after about 3 weeks; for pest or weed control at 320 g/ha: Ipomoea purpurea, 504 h. The method, then: as §1
Assay [8] concerns Alopecurus myosuroides. The assay can be described thus: Pre-emergence herbicidal activity against ALOMY. To be noted: dosage 80 g/ha, scored visually after about 3 weeks vs untreated controls; for pest or weed control at 80 g/ha: Alopecurus myosuroides, 504 h.
From the text: as §2

The subject of assay [9] is Veronica persica. The assay can be described thus: Pre-emergence herbicidal activity against VERPE. The settings on record: Veronica persica, 504 h, dosage 80 g/ha.
From the text: as §2

The next assay relates to Lolium rigidum. The assay can be described thus: Post-emergence herbicidal activity against LOLRI. The settings on record: dosage 320 g/ha, rated visually after about 3 weeks. As to the method: as §1
Assay [10] has as its system Avena fatua. The assay is described as follows: Pre-emergence herbicidal activity against AVEFA. The settings on record: dosage 80 g/ha, scored visually after about 3 weeks vs untreated controls.
From the text: as §2

A further assay concerns Hordeum murinum. The assay can be described thus: Post-emergence herbicidal activity against HORMU. The settings on record: dosage 320 g/ha, rated visually after about 3 weeks. As to the method:
as §1

The test system of another assay is Abutilon theophrasti. The assay is described as follows: Post-emergence herbicidal activity against ABUTH. The settings on record: dosage 320 g/ha, rated visually after about 3 weeks. The method, then:
as §1

Seven compounds from patent publication US11613522B2, “Herbicidally active 3-phenylisoxazoline-5-carboxamides of tetrahydro- and dihydrofurancarboxamides” (BAYER AKTIENGESELLSCHAFT, priority 2017, dated 2023) can be followed below.

By pest or weed control is commonly meant how far the test organism was held down. As for `CC1(C(=O)N[C@@H]2CO[C@H](C(=O)N3CCCC3)C2)CC(c2cc(F)cc(F)c2)=NO1` (relative stereo) [Example I-03, 3-(3,5-difluorophenyl)-5-methyl-N-[cis-5-(pyrrolidine-1-carbonyl)tetrahydrofuran-3-yl]-4H-isoxazole-5-carboxamide], the pest or weed control at 320 g/ha with Amaranthus retroflexus was 80%; in the assay with Avena fatua [1], 90%; in the assay on Stellaria media [2] it was 90%; with Echinochloa crus-galli, 80%; in the assay on Alopecurus myosuroides [4], 80%; with Polygonum convolvulus [5], 80%. Besides, the pest or weed control at 320 g/ha came out at 90% with Veronica persica [7], 80% in the assay with Viola tricolor, 90% in the assay on Setaria viridis and 80% in the assay on Pharbitis purpurea. In addition, the pest or weed control at 80 g/ha in the assay with Stellaria media [3] (Stellaria media, 504 h) turned out to be 80%; with Polygonum convolvulus [6] it was 80%.

Consider `CC1(C(=O)N[C@@H]2CO[C@H](C(=O)NC3CC3)C2)CC(c2cc(F)cc(F)c2)=NO1` (relative stereo) [Example I-04, N-[cis-5-(cyclopropylcarbamoyl)tetrahydrofuran-3-yl]-3-(3,5-difluorophenyl)-5-methyl-4H-isoxazole-5-carboxamide], for which the pest or weed control at 320 g/ha with Avena fatua [1] was 100%; with Stellaria media [2], 80%; in the assay with Echinochloa crus-galli, 80%; with Alopecurus myosuroides [4], 90%; in the assay on Polygonum convolvulus [5], 80%; in the assay on Veronica persica [7] it was 80%. Further, the pest or weed control at 320 g/ha was determined as 80% with Viola tricolor, 90% in the assay on Setaria viridis and 80% with Pharbitis purpurea. The pest or weed control at 80 g/ha worked out at 80% in the assay with Alopecurus myosuroides [8] and 90% with Polygonum convolvulus [6].

With `C=CC1(C(=O)N[C@@H]2CO[C@H](C(=O)N3CCCC3)C2)CC(c2cc(F)cc(F)c2)=NO1` (relative stereo) [Example I-06, 3-(3,5-difluorophenyl)-N-[cis-5-(pyrrolidin-1-carbonyl)tetrahydrofuran-3-yl]-5-vinyl-4H-isoxazole-5-carboxamide], the pest or weed control at 320 g/ha in the assay on Amaranthus retroflexus amounted to 80%; in the assay on Avena fatua [1] it was 90%; with Stellaria media [2], 80%; in the assay on Alopecurus myosuroides [4], 90%; with Polygonum convolvulus [5], 80%; in the assay with Veronica persica [7] it was 80%. Besides, the pest or weed control at 320 g/ha in the assay with Setaria viridis and with Pharbitis purpurea was 80% each time.

Regarding `CC1(C(=O)NC2COCC2C(=O)NC2CC2)CC(c2cc(F)cc(F)c2)=NO1` (stereo not drawn) [Example I-08, N-[4-(cyclopropylcarbamoyl)tetrahydrofuran-3-yl]-3-(3,5-difluorophenyl)-5-methyl-4H-isoxazole-5-carboxamide], the pest or weed control at 320 g/ha in the assay on Avena fatua [1] was 80%; with Alopecurus myosuroides [4] it was 90%; in the assay with Polygonum convolvulus [5], 80%; in the assay with Veronica persica [7] it was 80%; in the assay on Pharbitis purpurea, 80%. For the same compound, the pest or weed control at 80 g/ha in the assay with Alopecurus myosuroides [8] and with Veronica persica [9] was 90% throughout.

With `C[C@]1(C(=O)N[C@@H]2CO[C@H](C(=O)NCc3ncc(C(F)(F)F)cc3Cl)C2)CC(c2cc(F)cc(F)c2)=NO1` [Example I-27], the “Post-emergence herbicidal activity in % against LOLRI” value in the assay on Lolium rigidum is given as 90%. Also, the “Post-emergence herbicidal activity in % against AVEFA” value in the assay with Avena fatua [1] is on record as 100%. Further, in the assay with Alopecurus myosuroides [8], the “Pre-emergence herbicidal activity in % against ALOMY” value stood at 90%. Also, the “Post-emergence herbicidal activity in % against STEME” value in the assay on Stellaria media [2] is on record as 90%. In addition, the “Pre-emergence herbicidal activity in % against STEME” value in the assay with Stellaria media [3] turned out to be 90%. The “Post-emergence herbicidal activity in % against ECHCG” value in the assay on Echinochloa crus-galli was found to be 100%. Further, the “Pre-emergence herbicidal activity in % against AVEVA (AVEFA)” value with Avena fatua [10] worked out at 80%. Moreover, in the assay on Alopecurus myosuroides [4], the “Post-emergence herbicidal activity in % against ALOMY” value was 90%. The “Post-emergence herbicidal activity in % against POLCO” value in the assay with Polygonum convolvulus [5] was 80%. Besides, the “Post-emergence herbicidal activity in % against HORMU” value with Hordeum murinum worked out at 100%. Moreover, in the assay with Veronica persica [7], the “Post-emergence herbicidal activity in % against VERPE” value is 80%. Moreover, in the assay with Viola tricolor, the “Post-emergence herbicidal activity in % against VIOTR” value was 80%. The “Post-emergence herbicidal activity in % against SETVI” value in the assay on Setaria viridis is 80%. In the assay on Pharbitis purpurea, the “Post-emergence herbicidal activity in % against PHBPU” value was found to be 90%.

With `CCCS(=O)(=O)NC(=O)[C@@H]1C[C@H](NC(=O)[C@@]2(C)CC(c3cc(F)cc(F)c3)=NO2)CO1` [Example I-28], the “Post-emergence herbicidal activity in % against LOLRI” value in the assay with Lolium rigidum is 100%. The “Post-emergence herbicidal activity in % against AMARE” value in the assay on Amaranthus retroflexus is on record as 80%. The “Post-emergence herbicidal activity in % against AVEFA” value in the assay with Avena fatua [1] was 100%. The “Post-emergence herbicidal activity in % against STEME” value in the assay with Stellaria media [2] was found to be 90%. Besides, the “Post-emergence herbicidal activity in % against ABUTH” value with Abutilon theophrasti is on record as 80%. In addition, in the assay on Echinochloa crus-galli, the “Post-emergence herbicidal activity in % against ECHCG” value stood at 90%. The “Post-emergence herbicidal activity in % against ALOMY” value with Alopecurus myosuroides [4] was determined as 90%. In addition, the “Post-emergence herbicidal activity in % against POLCO” value with Polygonum convolvulus [5] is listed as 80%. For the same compound, the “Post-emergence herbicidal activity in % against HORMU” value in the assay with Hordeum murinum was 90%. For the same compound, in the assay with Veronica persica [7], the “Post-emergence herbicidal activity in % against VERPE” value is listed as 90%. Besides, the “Post-emergence herbicidal activity in % against VIOTR” value in the assay with Viola tricolor is 90%. The “Post-emergence herbicidal activity in % against SETVI” value with Setaria viridis is 90%. The “Post-emergence herbicidal activity in % against PHBPU” value in the assay on Pharbitis purpurea is 90%.

`C=C[C@]1(C(=O)N[C@@H]2CO[C@H](C(=O)NS(=O)(=O)CCC)C2)CC(c2cc(F)cc(F)c2)=NO1` [Example I-29]: the “Post-emergence herbicidal activity in % against LOLRI” value in the assay on Lolium rigidum is on record as 90%. Further, the “Post-emergence herbicidal activity in % against AMARE” value with Amaranthus retroflexus amounted to 90%. Moreover, the “Post-emergence herbicidal activity in % against AVEFA” value with Avena fatua [1] came out at 90%. Besides, the “Post-emergence herbicidal activity in % against STEME” value in the assay on Stellaria media [2] stood at 90%. In the assay on Abutilon theophrasti, the “Post-emergence herbicidal activity in % against ABUTH” value was 90%. The “Post-emergence herbicidal activity in % against ECHCG” value with Echinochloa crus-galli worked out at 90%. The “Post-emergence herbicidal activity in % against ALOMY” value in the assay with Alopecurus myosuroides [4] stood at 90%. Moreover, the “Post-emergence herbicidal activity in % against POLCO” value with Polygonum convolvulus [5] is recorded as 90%. Besides, in the assay with Hordeum murinum, the “Post-emergence herbicidal activity in % against HORMU” value was 90%. For the same compound, the “Post-emergence herbicidal activity in % against VERPE” value with Veronica persica [7] is recorded as 90%. Moreover, the “Post-emergence herbicidal activity in % against VIOTR” value with Viola tricolor is reported as 90%. The “Post-emergence herbicidal activity in % against SETVI” value in the assay on Setaria viridis is on record as 90%. Moreover, the “Post-emergence herbicidal activity in % against PHBPU” value in the assay with Pharbitis purpurea is listed as 90%.
